Measured values taken from PubChem BioAssay (NCI).
Values joined by “and” are separate entries in the source; they are usually repeats but may differ in a detail not shown here. Equal values may be shown once.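 These data come from cells grown in 96-well plates and exposed to compound for 48 hours at five concentrations. Here, GI50 denotes the concentration required for 50% inhibition of growth. TGI is the concentration that stops growth completely.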

Tests used:
Test in all cases: inhibition of tumour cell growth, NCI panel, 48 h
ACHN renal = tested on: ACHN renal
NCI/ADR-RES ovarian = tested on: NCI/ADR-RES ovarian
LOX IMVI melanoma = tested on: LOX IMVI melanoma
MDA-MB-435 = tested on: MDA-MB-435
UACC-62 melanoma = tested on: UACC-62 melanoma
HCT-15 colon = tested on: HCT-15 colon
SR leukemia = tested on: SR leukemia
HCT-116 colon = tested on: HCT-116 colon
PC-3 prostate = tested on: PC-3 prostate
EKVX NSCLC = tested on: EKVX NSCLC

| Structure (SMILES) | GI50 (ACHN renal) | TGI (ACHN renal) | GI50 (NCI/ADR-RES ovarian) | TGI (NCI/ADR-RES ovarian) | GI50 (LOX IMVI melanoma) | TGI (LOX IMVI melanoma) | GI50 (MDA-MB-435) | TGI (MDA-MB-435) | GI50 (UACC-62 melanoma) | TGI (UACC-62 melanoma) | GI50 (HCT-15 colon) | TGI (HCT-15 colon) | GI50 (SR leukemia) | TGI (SR leukemia) | GI50 (HCT-116 colon) | TGI (HCT-116 colon) | GI50 (PC-3 prostate) | TGI (PC-3 prostate) | GI50 (EKVX NSCLC) | TGI (EKVX NSCLC) |
| --- | --- | --- | --- | --- | --- | --- | --- | --- | --- | --- | --- | --- | --- | --- | --- | --- | --- | --- | --- | --- |
| COc1ccc(-c2nsc3c2NC(=O)CC3c2ccc(F)cc2)cc1 (stereo unspecified) | 6730 nM | > 100000 nM | 2570 nM | > 26900 nM | 7180 nM | > 100000 nM | 513 nM | 2430 nM | 4660 nM | > 100000 nM | 2160 nM | > 100000 nM | 1100 nM | > 100000 nM | 3950 nM | > 100000 nM | 3330 nM | > 100000 nM |  |  |
| COC(=O)[C@H]1[C@@H](O)[C@@]2(O)c3c(OC)cc(O[C@@H]4O[C@@H]([C@H](O)CO)CO[C@H]4OC)cc3O[C@@]2(c2ccc(OC)cc2)[C@@H]1c1ccccc1 | 59.7 nM | 783 nM |  | > 1000 nM | 2.63 nM | 9.86 nM | 3.58 nM | 14.3 nM | 6.94 nM | 32.2 nM | 233 nM | > 1000 nM | 3.41 nM | 147 nM | 3.71 nM |  | 4.05 nM | 33.8 nM | 6.59 nM | 105 nM |
| COc1cc(Br)c(CC2(C#N)c3ccccc3C3C(N2C(=O)c2ccccc2)C3(Cl)Cl)cc1OC (stereo unspecified) |  | > 65500 nM |  |  |  | > 65500 nM |  |  |  | > 65500 nM |  | > 65500 nM |  | > 65500 nM |  | > 65500 nM |  |  |  | > 65500 nM |
| C#CCSc1n[nH]c(-c2ccco2)n1 |  | > 100000 nM |  | > 100000 nM |  | > 100000 nM |  | > 100000 nM |  | > 100000 nM |  | > 100000 nM |  | > 100000 nM |  | > 100000 nM |  | > 100000 nM |  | > 100000 nM |
| CC(/C=C/C(=O)c1sc(-n2nc(-c3ccccc3)cc2-c2ccccc2)nc1C)=C\c1ccccc1 |  | > 100000 nM |  |  |  | > 100000 nM |  |  |  | > 100000 nM |  | 57600 nM |  | > 100000 nM |  | > 100000 nM |  |  | 9730 nM | > 100000 nM |
| CC(=O)[O-].CC(=O)[O-].O=C(N/N=C/c1cc(Cl)cc(Cl)c1O)c1ccncc1.[Ni+2] |  | > 100000 nM |  |  |  | > 100000 nM |  |  |  | > 100000 nM |  | > 100000 nM |  | > 100000 nM |  | > 100000 nM |  |  |  | > 100000 nM |
| CC1=C(C(=O)Nc2ccccc2C)C(c2ccc(C3C(C(=O)Nc4ccccc4C)=C(C)NC(C)=C3C(=O)Nc3ccccc3C)cc2)C(C(=O)Nc2ccccc2C)=C(C)N1 |  | 16000 nM |  |  |  | 3630 nM |  | 14300 nM |  | 4650 nM |  | 23500 nM |  | 8560 nM |  | 7170 nM |  | 16100 nM |  | 19200 nM |
| COc1cc(-c2nc(NC(C)=O)sc2-c2ccnc(NCCNS(=O)(=O)c3ccccc3)n2)ccc1Cl | 3100 nM | > 100000 nM | > 100000 nM | > 100000 nM | 4410 nM | > 100000 nM | 799 nM | 3450 nM | 2610 nM | > 100000 nM | 3780 nM | > 100000 nM | 2300 nM | > 100000 nM | 3170 nM | 35700 nM | 2880 nM | > 100000 nM | 5250 nM | > 100000 nM |
| CCN(CC)c1ccc(C2CC(c3cc(OC)c(OC)c(OC)c3)=NN2)cc1 (stereo unspecified) | 1550 nM | > 100000 nM | 440 nM | > 100000 nM | 830 nM | > 42000 nM | 404 nM | > 100000 nM | 446 nM | > 68200 nM | 597 nM | > 100000 nM | 286 nM | 1730 nM | 744 nM | > 100000 nM | 342 nM | 35200 nM | 305 nM |  |
| CCc1c2c(nc3cc4c(c(N)c13)OCO4)-c1cc3c(c(=O)n1C2)COC(=O)[C@]3(O)CC | < 1 nM | 412 nM |  | 56700 nM | < 1 nM | 134 nM and 190 nM | 24.1 nM and 79.6 nM | 2010 nM and 1960 nM | < 1 nM | 405 nM and 236 nM | 277 nM and 178 nM | > 100000 nM |  | > 100000 nM | 174 nM | 24600 nM | 228 nM and 28.8 nM | > 100000 nM | 1930 nM and 962 nM | 48700 nM |
| CC1=C(C(=O)Nc2ccccc2)C(c2ccc([N+](=O)[O-])cc2)C(C(=O)Nc2ccccc2)=C(C)N1 |  | > 100000 nM |  |  |  | 30500 nM |  |  |  | 27900 nM |  | 50900 nM |  | 45700 nM |  | 37200 nM |  |  |  | 46200 nM |
| Cc1nnc(N=Nc2c(O)[nH]c3c(Cl)cc(Cl)cc23)n1N |  | > 100000 nM |  |  |  | > 100000 nM |  |  |  | > 100000 nM |  | > 100000 nM |  | > 100000 nM |  | > 100000 nM |  |  |  | > 100000 nM |
| CNC(=O)c1c(NC(=O)c2ccc(C(F)(F)F)cc2)sc2c1CCC(=O)C2 | 322 nM | 1900 nM | 662 nM | 3740 nM | 361 nM | 2270 nM | 818 nM | 3550 nM | 617 nM | 2230 nM | 239 nM | 1760 nM | 356 nM | > 100000 nM | 188 nM | 1400 nM | 186 nM | 1350 nM | 890 nM | 6050 nM |
| COC(=O)NC1(NC(=O)OC)NC(=O)c2cc(OC)c(OC)cc2N1 |  | > 100000 nM |  | > 100000 nM |  | > 100000 nM |  | 13700 nM |  | > 100000 nM |  | > 100000 nM |  | > 100000 nM |  | > 100000 nM |  | > 100000 nM |  | > 100000 nM |
| Cc1ncc(C(=O)Nc2ccc(CN3CCN(C)CC3)c(C(F)(F)F)c2)cc1C#Cc1cnc(N)c2cnccc12 | 133 nM | 1030 nM | 6680 nM | 23900 nM | 33.5 nM | 158 nM | 26.1 nM | 4110 nM | 19 nM | 105 nM | 389 nM | 4410 nM | 45.6 nM | 1920 nM | 43.4 nM | 1230 nM | 225 nM | 16300 nM | 358 nM | 12900 nM |
| CCN(CC)CCCC(C)Nc1cc(-c2ccc(C(F)(F)F)cc2)c(C#N)c2nc3ccccc3n12 (stereo unspecified) | 1380 nM | 2870 nM | 1980 nM | 4440 nM |  |  | 1670 nM | 3140 nM | 1720 nM | 3380 nM | 1880 nM | 4030 nM | 2160 nM | 5910 nM | 687 nM | 2060 nM | 2060 nM | 4260 nM | 2290 nM | 5820 nM |
